The results in this text go back to patent US8580833B2, “Substituted imidazole derivatives and methods of use thereof” (TransTech Pharma, Inc., priority 2009, dated 2013).

Each structure is given as a SMILES string. pIC50: −log10 of the molar value. Structures can show the parent of a compound that is named as a salt. Where two headings read alike, the source gives them in different places.

In data set [1] the target is T1, RAGE (sRAGE) with β-amyloid as the RAGE ligand (Homo sapiens, UniProt Q15109).
T1 construct: generate soluble RAGE (sRAGE) comprised of the V and C domains
As to the kind of experiment: ELISA: inhibition of sRAGE binding to plate-bound β-amyloid. Conditions: sRAGE 6 nM, hydrochloride salt form. As for the experimental part: (§1) The following assay method may be used to identify compounds of Formula (I) or pharmaceutically acceptable salts thereof which are useful as inhibitors of binding of physiological RAGE ligands, such as S100b and β-amyloid, to RAGE.
(§2) S100b, β-amyloid, or CML (500 ng/100 μL/well) in 100 mM sodium bicarbonate/sodium carbonate buffer (pH 9.8) is loaded onto the wells of a NUNC Maxisorp flat bottom 96-well microtitre plate. The plate is incubated at 4° C. overnight. The wells are aspirated and treated with 50 mM imidazole buffer saline (pH 7.2) (with 5 mM CaCl2/MgCl2) containing 1% bovine serum albumin (BSA) (300 μL/well) for 1 h at RT. The wells are aspirated.
(§3) Test compounds are dissolved in nanopure water (concentration: 10-100 μM). DMSO may be used as co-solvent. 25 μL of test compound solution in 4% DMSO is added, along with 75 μL sRAGE (6 nM FAC) to each well and samples are incubated for 1 h at 37° C. The wells are washed several times with 155 mM NaCl pH 7.2 buffer saline and are soaked for several seconds between each wash.
(§4) Non-radioactive detection is performed by adding:
(§5) 10 μL Biotinylated goat F(ab′)2 Anti-mouse IgG. (8.0×10-4 mg/mL, FAC), 5 μL Alk-phos-Streptavidin (3×10-3 mg/mL FAC), 0.42 μL per 5 mL Monoclonal antibody for sRAGE (FAC 6.0×10-3 mg/mL) to 5 mL 50 mM imidazole buffer saline (pH 7.2) containing 0.2% bovine serum albumin and 5 mM CaCl2. The mixture is incubated for 30 minutes at RT.
(§6) 100 μL of complex is added to each well and incubation is allowed to proceed at rt for 1 h. Wells are washed several times with wash buffer and soaked several seconds between each wash. 100 μL 1 mg/mL (pNPP) in 1 M diethanolamine (pH adjusted to 9.8 with HCl) is added. Color is allowed to develop in the dark for 30 min to 1 h at rt. The reaction is quenched with 10 μL of stop solution (0.5-1.0 N NaOH in 50% ethanol) and the absorbance is measured spectrophotometrically with a microplate reader at 405 nm.
(§7) IC50 (μM) of in the ELISA assay represents the concentration of compound at which 50% signal has been inhibited.
A general note: ELISA stands for enzyme-linked immunosorbent assay.

Data set [2] in a line: Pharmacokinetic screening in rats, brain and plasma concentrations at 6 hour time point. The class given is in vivo. Conditions: male, Sprague Dawley, rat, 5 mg/kg oral (PO), 6 hour time point; for concentration at 6 h: 2% Tween 80 in distilled water; for Kp at 6 h: brain/plasma ratio, read-out: B/P Ratio. The method, then: Pharmacokinetic screening in rats was performed on various compounds to measure brain and plasma concentrations at 6 hour time point.
The parameters for the pharmacokinetic protocol were as follows.
Amount of compound: 5 mg/kg
Species: Rat; Strain: Sprague Dawley; Sex: Male
Average body weight at dose: weight ranged from 271 to 423 grams
Average age at dose: age ranged from 9 to 14 weeks
Diet Status Overnight fasting
Number of Animals (n) for each time point: 2
Formulation: 2% Tween 80 in distilled water
Each formulation was administered once by oral gavage. The dose volume was 5 mL/kg for all animals. The actual volume administered to each animal was calculated and adjusted based on the most recent body weight.
Blood samples (approximately 300 μL whole blood) at (1, 2, and 4 h) was collected from each animal via tail vein except for terminal blood samples. Terminal blood (6 h) samples were collected via cardiac puncture. All samples were collected into tubes containing lithium heparin (Multivette 600 LH-Gel, Sarstedt, Newton, N.C., USA). Following collection, the tubes were placed in refrigerator (maximum 30 minutes) or until centrifugation under refrigeration (at 2 to 8° C.) at 1500 g for approximately 15 minutes. Each harvested plasma sample was then transferred into 1.2 mL polypropylene tubes, on the 96-Well Plate according to the 96-Well Plate plasma sample map and kept in freezer. Plasma samples were then analyzed for test substances.
Brain samples were collected immediately after the animals were euthanized at designated time points. Brain samples were rinsed with saline, blotted dry, and weighed. Brain samples were placed into individual containers and kept in freezer (−20° C.). Brain samples were then analyzed for test articles.
After analysis, all the plasma results are reported as ng/mL and brain sample results are reported as ng/g. In the table below, “ND” stands for not determined and “NA” stands for not applicable.

Data set [3] has as its target T2, RAGE (sRAGE) with S100b as the RAGE ligand (Homo sapiens, UniProt Q15109).
T2 construct: generate soluble RAGE (sRAGE) comprised of the V and C domains
As to the kind of experiment: ELISA: inhibition of sRAGE binding to plate-bound S100b. Conditions: sRAGE 6 nM, hydrochloride salt form. As for the experimental part:
as §1, §2, §3, §4, §5, §6, §7

Setting [4] is: brain, read-out: Brain concentration.
Setting [5] is: plasma, read-out: Plasma concentration.

The term pIC50 denotes the IC50 on a negative log10 scale, so that one unit is a factor of ten.

T2 sequence (Q15109 23-342 limits assumed): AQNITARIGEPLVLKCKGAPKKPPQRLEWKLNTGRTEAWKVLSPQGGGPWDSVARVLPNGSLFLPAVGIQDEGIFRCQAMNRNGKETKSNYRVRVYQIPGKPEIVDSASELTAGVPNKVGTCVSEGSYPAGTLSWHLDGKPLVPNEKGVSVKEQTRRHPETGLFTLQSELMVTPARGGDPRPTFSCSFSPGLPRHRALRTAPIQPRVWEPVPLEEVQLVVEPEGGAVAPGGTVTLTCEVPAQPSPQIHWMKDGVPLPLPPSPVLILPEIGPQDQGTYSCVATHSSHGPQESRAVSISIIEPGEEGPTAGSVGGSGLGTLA
T1 sequence (Q15109 23-342 limits assumed): as above

Consider `CCCCc1nc(-c2ccc(OC[C@H](O)CNCC)cc2)cn1-c1ccc(Oc2ccc(Cl)cc2)cc1` [Example 11, (R)-1-(4-{2-butyl-1-[4-(4-chloro-phenoxy)-phenyl]-1H-imidazol-4-yl}-phenoxy)-3-ethylamino-propan-2-ol dihydrochloride], for which the pIC50 in data set [1] was 5.99; in data set [3], 6.09. Further, the concentration at 6 h in data set [2] (setting [4]) turned out to be 343 ng/g; in data set [2] (setting [5]), 72 ng/mL. Further, the Kp at 6 h in data set [2] stood at 4.8.

As for `CCCCc1nc(-c2ccc(OC[C@@H](O)CNCC)cc2)cn1-c1ccc(Oc2ccc(Cl)cc2)cc1` [Example 12, (S)-1-(4-{2-butyl-1-[4-(4-chloro-phenoxy)-phenyl]-1H-imidazol-4-yl}-phenoxy)-3-ethylamino-propan-2-ol dihydrochloride], the pIC50 in data set [1] is 5.92; in data set [3] it was 6.01. Moreover, the values for the concentration at 6 h in data set [2] (setting [4]) and in data set [2] (setting [5]) were 540 ng/g and 124 ng/mL, respectively. Also, the Kp at 6 h in data set [2] was found to be 4.5.
